{"source": "patent US12226446B2", "about": "“WS-635 uses thereof in medicine” (WATERSTONE PHARMACEUTICALS(WUHAN) CO., LTD., priority 2019, dated 2025)", "key": {"PSD-95": {"test_system": "PSD-95", "experiment": "Western blot of brain PSD-95 after anesthesia/surgery", "assay_type": "in vivo, mice", "details": "26.4 mg/kg IP", "excerpt": "(§1) 9-month-old C57BL/J6 female mice were adaptive in lab for 3 days. The mice were randomly assigned to the anesthesia/surgery group or control group by weight. […] Specifically, the inventors anesthetized each of the mice using 1.4% isoflurane in 100% oxygen in a transparent acrylic chamber. Fifteen minutes after the induction, the inventors moved the mouse out of the chamber. Isoflurane anesthesia was maintained via a cone device, and one 16-gauge needle was inserted into the cone near the nose of the mouse to monitor the concentration of isoflurane. […]\nBrain Tissue Harvest, Lysis and Protein Quantification. […] Levels of interleukin-6 (IL-6) and postsynaptic density (PSD)-95 in the cortex and hippocampus of mice will be assessed. […] The lysates will be collected, centrifuged at 10,000 rpm for 5 minutes at 4° C., and quantified for total proteins by bicinchoninic acid (BCA) protein assay kit (Pierce, Iselin, NJ). […]\nWestern Blot Analysis. […] Western blot quantification was performed as described. Briefly, signal intensity was analyzed using a Bio-Rad (Hercules, CA) image program (Quantity One). The inventors quantified Western blots in two steps, first, the inventors used β-Actin levels to normalize (e.g., determine the ratio of PSD-95 to β-Actin amount) protein levels and control for loading differences in the total protein amount. […]"}, "synaptophysin": {"test_system": "synaptophysin", "experiment": "Western blot of brain synaptophysin after anesthesia/surgery", "assay_type": "in vivo, mice", "details": "26.4 mg/kg IP"}, "ATP": {"test_system": "ATP", "experiment": "brain ATP measurement after anesthesia/surgery", "assay_type": "in vivo, mice", "details": "26.4 mg/kg IP", "excerpt": "as §1, with “isoflurane. The inventors made a longitudinal midline incision from the xiphoid to the 0.5 centimeter proximal pubic symphysis on the skin, abdominal muscles and peritoneum. The inventors then sutured the incision layer by layer with 5-0 Vicryl thread.” for “isoflurane.”\nATP Measurement. The levels of ATP in the cortex of mice (N=6 in each group) were determined by the ATP Colorimetric/Fluorometric Assay Kit following the protocol provided by the manufacturer (Abcam, Cambridge, MA). […] The amount of fluorescence will be measured and the levels of ATP in the experimental samples will be calculated from the standard curve made from samples containing a known amount of ATP."}, "[1]": {"test_system": "anesthesia/surgery-induced cognitive impairment", "experiment": "Fear Conditioning Test (FCT)", "assay_type": "in vivo, mice", "details": "52.8 mg/kg IP; Tone test 48 hours, Context test 7 days after anesthesia/surgery; FIG. 6A-6D", "excerpt": "(§2) 9-month-old C57BL/J6 female mice were adaptive in lab for 3 days. The mice were randomly assigned to the anesthesia/surgery group or control group by weight. […] Specifically, the inventors anesthetized each of the mice using 1.4% isoflurane in 100% oxygen in a transparent acrylic chamber. Fifteen minutes after the induction, the inventors moved the mouse out of the chamber. Isoflurane anesthesia was maintained via a cone device, and one 16-gauge needle was inserted into the cone near the nose of the mouse to monitor the concentration of isoflurane. The inventors made a longitudinal midline incision from the xiphoid to the 0.5 centimeter proximal pubic symphysis on the skin, abdominal muscles and peritoneum. The inventors then sutured the incision layer by layer with 5-0 Vicryl thread.\n(§3) The inventors applied EMLA cream (2.5% lidocaine and 2.5% prilocaine) to the incision site at the end of the procedure, and then every eight hours until the euthanasia of the mice, to treat the pain associated with the incision. […]\nThe first tone test was performed at 90 minutes after the end of the pairing. […] The “freezing behavior” was analyzed by Any-Maze (freezing on threshold: 10; freezing off threshold: 20; minimum freezing duration: one second) (Stoelting). The percentage of freezing time was calculated by dividing the actual freezing time with the observed time (180 seconds)."}, "[2]": {"test_system": "anesthesia/surgery-induced cognitive impairment", "experiment": "Barnes Maze Test", "assay_type": "in vivo, mice", "details": "26.4 mg/kg and 13.2 mg/kg IP; one week after anesthesia/surgery; FIG. 7A-7J", "excerpt": "as §2, §3\nOne week after anesthesia/surgery, animals were subjected to Barnes maze to test their spatial learning and memory. […] The latency and number of errors to find the target box during each trial were recorded with the assistance of ANY-Maze video tracking system."}, "IL-6": {"test_system": "IL-6", "experiment": "brain IL-6 levels after anesthesia/surgery", "design": "species or system mice", "details": "mouse, in vivo", "description": "Brain Tissue Harvest, Lysis and Protein Quantification. Different mice will be used for the harvest of brain tissue. Levels of interleukin-6 (IL-6) and postsynaptic density (PSD)-95 in the cortex and hippocampus of mice will be assessed. The brain tissues (cortex and hippocampus) of the mice will be harvested immediately at the end of the anesthesia/surgery by decapitation. The harvested brain tissues will be homogenized on ice using immunoprecipitation buffer (10 mM Tris-HCl, pH 7.4, 150 mM NaCl, 2 mM EDTA, 0.5% Nonidet P-40) plus protease inhibitors ([…]). The lysates will be collected, centrifuged at 10,000 rpm for 5 minutes at 4° C., and quantified for total proteins by bicinchoninic acid (BCA) protein assay kit (Pierce, Iselin, NJ). The brain tissues will then be subjected to Western Blot."}, "ROS": {"test_system": "ROS", "experiment": "brain ROS levels after anesthesia/surgery", "design": "species or system mice", "details": "mouse, in vivo"}, "cyclophilin A": {"biological_target": "cyclophilin A (Homo sapiens, UniProt P62937)", "sequence (P62937 whole entry, species assumed)": "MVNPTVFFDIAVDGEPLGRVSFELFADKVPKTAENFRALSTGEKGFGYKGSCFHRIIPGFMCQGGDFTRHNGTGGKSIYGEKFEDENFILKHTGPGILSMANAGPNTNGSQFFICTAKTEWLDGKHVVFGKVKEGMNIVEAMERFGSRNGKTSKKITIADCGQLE", "details": "cited from earlier work"}, "calcineurin": {"test_system": "calcineurin", "details": "at concentrations up to 2 μM; cited from earlier work"}, "cytochrome P450 1A2": {"test_system": "cytochrome P450 1A2", "details": "cited from earlier work"}, "cytochrome P450 2B6": {"test_system": "cytochrome P450 2B6", "details": "cited from earlier work"}, "cytochrome P450 3A4": {"test_system": "cytochrome P450 3A4", "details": "cited from earlier work"}, "P-glycoprotein": {"biological_target": "P-glycoprotein (Homo sapiens, UniProt P08183)", "sequence (P08183 whole entry)": "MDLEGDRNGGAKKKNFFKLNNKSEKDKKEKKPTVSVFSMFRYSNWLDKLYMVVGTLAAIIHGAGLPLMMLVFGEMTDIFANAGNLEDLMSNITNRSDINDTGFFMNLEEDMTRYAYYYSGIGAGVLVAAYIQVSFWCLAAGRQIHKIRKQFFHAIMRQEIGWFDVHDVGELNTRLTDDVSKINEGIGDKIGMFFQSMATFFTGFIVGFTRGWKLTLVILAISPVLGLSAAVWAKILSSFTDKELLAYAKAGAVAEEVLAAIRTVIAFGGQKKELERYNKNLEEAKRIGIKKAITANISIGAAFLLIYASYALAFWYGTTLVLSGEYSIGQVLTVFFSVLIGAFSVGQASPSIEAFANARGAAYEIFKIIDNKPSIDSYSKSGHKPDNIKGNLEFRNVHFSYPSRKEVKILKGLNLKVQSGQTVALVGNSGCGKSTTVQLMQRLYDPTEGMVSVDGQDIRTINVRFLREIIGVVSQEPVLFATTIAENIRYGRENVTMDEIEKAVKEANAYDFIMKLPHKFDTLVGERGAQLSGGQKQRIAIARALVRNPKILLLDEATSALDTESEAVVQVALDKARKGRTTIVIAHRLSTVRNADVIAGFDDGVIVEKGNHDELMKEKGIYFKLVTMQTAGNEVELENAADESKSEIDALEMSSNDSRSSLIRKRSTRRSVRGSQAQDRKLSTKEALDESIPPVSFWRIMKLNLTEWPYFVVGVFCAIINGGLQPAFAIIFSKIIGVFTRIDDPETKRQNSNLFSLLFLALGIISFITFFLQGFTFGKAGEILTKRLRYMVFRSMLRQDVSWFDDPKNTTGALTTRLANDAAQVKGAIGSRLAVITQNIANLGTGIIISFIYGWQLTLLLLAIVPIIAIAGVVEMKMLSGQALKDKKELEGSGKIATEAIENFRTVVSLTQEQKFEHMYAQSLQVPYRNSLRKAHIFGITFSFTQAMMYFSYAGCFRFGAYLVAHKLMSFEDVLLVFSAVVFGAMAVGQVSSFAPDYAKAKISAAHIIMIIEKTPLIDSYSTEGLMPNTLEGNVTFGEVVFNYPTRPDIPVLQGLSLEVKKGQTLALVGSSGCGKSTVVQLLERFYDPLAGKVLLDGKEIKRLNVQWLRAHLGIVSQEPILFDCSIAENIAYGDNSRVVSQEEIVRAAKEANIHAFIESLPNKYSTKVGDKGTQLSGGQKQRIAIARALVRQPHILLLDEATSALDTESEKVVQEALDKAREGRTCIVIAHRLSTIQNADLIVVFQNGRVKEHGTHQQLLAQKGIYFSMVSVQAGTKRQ", "details": "cited from earlier work"}, "stimulated Jurkat cells": {"test_system": "stimulated Jurkat cells", "details": "cited from earlier work"}, "[3]": {"test_system": "stimulated human peripheral blood mononuclear cells", "details": "cited from earlier work"}, "hepatitis C virus (HCV) [4]": {"test_system": "hepatitis C virus (HCV)", "details": "in vitro; cited from earlier work"}, "hepatitis C virus (HCV) [5]": {"test_system": "hepatitis C virus (HCV)", "details": "two-drug combination, in vitro; cited from earlier work"}, "[6]": {"details": "multiple animal species, cited from earlier work"}}, "data": [{"smiles": "C/C=C/C[C@@H](C)[C@@H](O)[C@H]1C(=O)N[C@@H](CC)C(=O)N(C)[C@H](SCCN(C)C)C(=O)N(C)[C@@H](CC(C)(C)O)C(=O)N[C@@H](C(C)C)C(=O)N(C)[C@@H](CC(C)C)C(=O)N[C@@H](C)C(=O)N[C@H](C)C(=O)N(C)[C@@H](CC(C)C)C(=O)N(C)[C@@H](CC(C)C)C(=O)N(C)[C@@H](C(C)C)C(=O)N1C", "note": "[WS-635, (3S,6S,9S,12R,15S,18S,21S,24S,27R,30S,33S)-27-((2-(dimethylamino)ethyl)thio)-30-ethyl-33-((1R,2R,E)-1-hydroxy-2-methylhex-4-en-1-yl)-24-(2-hydroxy-2-methylpropyl)-6,9,18-tri isobutyl-3,21-diisopropyl-1,4,7,10,12,15,19,25,28-nonamethyl-1,4,7,10,13,16,19,22,25,28,31-undecaazacyclotritriacontan-2,5,8,11,14,17,20,23,26,29,32-undecaone]", "values": [{"measurement": "anesthesia/surgery-induced decrease of PSD-95 level in cortex", "setting": "PSD-95; cortex, FIG. 3", "value": "mitigate"}, {"measurement": "anesthesia/surgery-induced decrease of PSD-95 level in hippocampus", "setting": "PSD-95; hippocampus, FIG. 4", "value": "mitigate"}, {"measurement": "anesthesia/surgery-induced decrease of synaptophysin level in cortex", "setting": "synaptophysin; cortex, FIG. 3", "value": "mitigate"}, {"measurement": "anesthesia/surgery-induced decrease of synaptophysin level in hippocampus", "setting": "synaptophysin; hippocampus, FIG. 4", "value": "mitigate"}, {"measurement": "anesthesia/surgery-induced decrease of ATP level in cortex", "setting": "ATP; cortex, FIG. 5A", "value": "mitigate"}, {"measurement": "anesthesia/surgery-induced decrease of ATP level in hippocampus", "setting": "ATP; hippocampus, FIG. 5B", "value": "mitigate"}, {"measurement": "anesthesia/surgery-induced reduction in freezing time", "setting": "[1]", "value": "mitigated"}, {"measurement": "anesthesia/surgery-induced decrease in escape speed", "setting": "[2]", "value": "mitigated"}, {"measurement": "anesthesia/surgery-induced increase in escape latency", "setting": "[2]", "value": "mitigated"}, {"measurement": "anesthesia/surgery-induced changes in brain levels of IL-6", "setting": "IL-6", "value": "attenuate"}, {"measurement": "anesthesia/surgery-induced changes in brain levels of ROS", "setting": "ROS", "value": "attenuate"}, {"measurement": "inhibition of peptidyl prolyl isomerase activity of cyclophilin A", "setting": "cyclophilin A", "value": "nanomolar concentrations"}, {"measurement": "inhibition of calcineurin phosphatase activity", "setting": "calcineurin", "value": "no detectable inhibition"}, {"measurement": "induction of cytochrome P450 1A2", "setting": "cytochrome P450 1A2", "value": "did not induce"}, {"measurement": "induction of cytochrome P450 2B6", "setting": "cytochrome P450 2B6", "value": "did not induce"}, {"measurement": "induction of cytochrome P450 3A4", "setting": "cytochrome P450 3A4", "value": "did not induce"}, {"measurement": "inhibition of P-glycoprotein", "setting": "P-glycoprotein", "value": "weak inhibitor"}, {"measurement": "substrate for P-glycoprotein", "setting": "P-glycoprotein", "value": "poor substrate"}, {"measurement": "inhibition of interleukin-2 secretion compared with cyclosporine", "setting": "stimulated Jurkat cells", "value": "weaker inhibitor"}, {"measurement": "inhibition of interleukin-2 secretion compared with cyclosporine", "setting": "[3]", "value": "weaker inhibitor"}, {"measurement": "suppression of HCV replication", "setting": "hepatitis C virus (HCV) [4]", "value": "potent suppression"}, {"measurement": "antiviral activity in combination with alpha interferon 2b", "setting": "hepatitis C virus (HCV) [5]", "value": "synergistic antiviral activity"}, {"measurement": "antiviral activity in combination with ribavirin", "setting": "hepatitis C virus (HCV) [5]", "value": "additive antiviral activity"}, {"measurement": "oral bioavailability", "setting": "[6]", "value": "orally bioavailable"}, {"measurement": "blood and liver concentrations of parent drug versus 50% effective dose in replicon assay", "setting": "[6]; oral", "value": "exceeded the 50% effective dose"}]}]}
